Assay results as given in patent US7071197B2, “N,N-disubstituted diazocycloalkanes” (Recordati S.A., priority 2002, dated 2006).
Like-named read-outs stand apart in the source and are kept apart here.

Experiments:
human α1b-adrenoceptor = biological target: T1, human α1b-adrenoceptor (Homo sapiens, UniProt P35368); assay: [3H]prazosin binding to cloned human α1-adrenoceptor subtypes (α1b); settings: for Ki: [3H]prazosin, CHO cell membranes, read-out: Binding affinity (Ki, nM) α1b; for α1b/5-HT1A: selectivity: ratio of Ki at α1b and Ki at 5-HT1A
T1 construct: expressed in transfected cells
T1 sequence (P35368 1-520): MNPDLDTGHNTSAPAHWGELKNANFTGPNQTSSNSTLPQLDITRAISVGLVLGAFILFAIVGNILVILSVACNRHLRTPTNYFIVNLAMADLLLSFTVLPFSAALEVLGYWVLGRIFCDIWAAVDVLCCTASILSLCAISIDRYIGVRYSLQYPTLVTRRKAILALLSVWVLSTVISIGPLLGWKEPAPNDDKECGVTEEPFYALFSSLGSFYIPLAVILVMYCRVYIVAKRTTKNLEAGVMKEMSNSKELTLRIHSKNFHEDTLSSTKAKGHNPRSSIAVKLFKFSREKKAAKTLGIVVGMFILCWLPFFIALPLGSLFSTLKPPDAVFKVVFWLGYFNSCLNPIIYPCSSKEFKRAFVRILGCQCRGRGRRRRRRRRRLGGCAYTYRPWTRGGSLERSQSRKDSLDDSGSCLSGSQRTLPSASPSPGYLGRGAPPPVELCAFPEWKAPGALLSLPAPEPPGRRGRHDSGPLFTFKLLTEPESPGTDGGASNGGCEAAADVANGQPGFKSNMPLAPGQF
Method: Binding to cloned human α1-adrenoceptor subtypes was performed in membranes from CHO cells (chinese hamster ovary cells) transfected by electroporation with DNA expressing the gene encoding each α1-adrenoceptor subtype. Cloning and stable expression of the human α1-adrenoceptor gene was performed as previously described (Testa et al. Pharmacol. Comm., 6: 79–86,1995).
CHO cells were grown in suspension in Iscove's modified Dulbecco's medium, supplemented with 10% fetal calf serum and gentamicin (50 μg/ml), at 37° C. in 7% CO2 in an humidified incubator. Cells were collected by centrifugation, lised in ice-cold Tris 5 mM and EDTA 5 mM buffer (pH 7.4) and gently homogenised. Homogenates were centrifuged at 40000×g×20 min and pellets were resuspended in a small volume of ice-cold Tris 5 mM and EDTA 5 mM buffer (pH 7.4) and immediately frozen and stored at −80° C. until use.
CHO cell membranes were resuspended and incubated in 50 mM Tris, pH 7.4, with 0.2 nM [^3H]prazosin, in a final volume of 1.02 ml for 30 min at 25° C., in absence or presence of competing drugs. Non-specific binding was determined in the presence of 10 μM phentolamine. The incubation was stopped by rapid filtration through 0.2% polyethyleneimine pretreated Schleicher & Schuell GF52 filters using a Tomtec (PerkinElmer) cell harvester. The filters were washed with 3×1 ml of ice-cold Tris buffer, dried and the radioactivity was measured in a Betaplate (Wallac) liquid scintillation counter.
The inhibition of specific binding by the compounds was analysed to estimate the IC50 value by the non-linear curve-fitting program Allfit (De Lean et al. Am. J. Physiol. 235, E97-E102, 1978). The IC50 value is converted to an affinity constant (Ki) by the equation of Cheng & Prusoff (Biochem. Pharmacol. 22: 3099–3108, 1973).

[1] = biological target: T2, post-synaptic 5-HT1A receptors (Rattus norvegicus, UniProt P19327); assay: Inhibition of stereotypy (rhythmic forepaw treading) induced by 8-OH-DPAT in rats; format: in vivo; settings: for inhibition at 0.01 mg/kg / inhibition at 0.03 mg/kg / inhibition at 0.1 mg/kg / inhibition at 0.3 mg/kg / inhibition at 1 mg/kg / inhibition at 3 mg/kg / inhibition at 10 mg/kg: rat; for inhibition at 0.01 mg/kg: 0.01 mg/kg i.v.; for inhibition at 0.03 mg/kg: 0.03 mg/kg i.v.; for inhibition at 0.1 mg/kg: 0.1 mg/kg i.v.; for inhibition at 1 mg/kg: 1 mg/kg p.o.; for inhibition at 3 mg/kg: 3 mg/kg p.o.; for inhibition at 10 mg/kg: 10 mg/kg p.o.
T2 construct: from tissue; host or cells: whole animal, male Sprague-Dawley rat (in vivo)
T2 sequence (P19327 1-422): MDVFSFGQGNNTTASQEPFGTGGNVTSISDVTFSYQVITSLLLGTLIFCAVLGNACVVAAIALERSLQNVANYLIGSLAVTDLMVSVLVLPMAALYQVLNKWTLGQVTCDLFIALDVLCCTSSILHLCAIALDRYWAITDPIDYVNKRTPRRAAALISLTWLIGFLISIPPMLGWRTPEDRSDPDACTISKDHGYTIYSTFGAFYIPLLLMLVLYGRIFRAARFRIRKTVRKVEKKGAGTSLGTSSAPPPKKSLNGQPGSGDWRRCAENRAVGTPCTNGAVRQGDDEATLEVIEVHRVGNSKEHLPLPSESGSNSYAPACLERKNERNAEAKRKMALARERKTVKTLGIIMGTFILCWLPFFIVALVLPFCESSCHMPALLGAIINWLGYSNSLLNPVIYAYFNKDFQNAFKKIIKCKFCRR
Method: The inhibitory effect of 5-HT1A-receptor antagonists on stereotyped forepaw treading induced in rats by subcutaneous injection of 8-OH-DPAT was evaluated by the method of Tricklebank (Tricklebank et al., Eur. J. Pharmacol., 117: 15, 1985) with minor modifications as described below.
Male Sprague-Dawley rats [Crl: CD® (SD) IGS BR] weighing 150–175 g from Charles River Italia were used. The animals were housed with free access to food and water and maintained on a forced 12-hour-light/12-hour-dark cycle at 22–24° C. of temperature. On the day of the experiment, the rats were placed singly in clear plastic containers, 10–15 minutes before administration of the vehicle or compounds to be tested. For evaluation of antagonistic activity after intravenous or oral administration, the compounds were administered 1 and 4 hours before induction of stereotypy by 8-OH-DPAT (1 mg/kg subcutaneously). Observation sessions lasted 30 seconds and began 3 minutes after 8-OH-DPAT treatment and were repeated every 3 minutes over a period of 15 minutes.
The appearance of the symptom induced by postsynaptic stimulation of 5-HT1A receptors was noted, and the intensity was scored using an intensity scale in which: 0=absent, 1=equivocal, 2=present and 3=intense. Behavioural scores for treated rats were accumulated throughout the observation time (5 observation periods) and expressed as mean values of 4 rats/dose. Change in mean values of treated animals in comparison with control (vehicle) group, expressed as per-cent inhibition, was used to quantify the antagonistic activity.

[2] = after intravenous administration
[3] = iv, 0.3 mg/kg i.v., 1 h before 8-OH-DPAT
[4] = iv, 0.3 mg/kg i.v., 4 h before 8-OH-DPAT
[5] = po, 0.3 mg/kg p.o., 1 h before 8-OH-DPAT
[6] = po, 0.3 mg/kg p.o., 4 h before 8-OH-DPAT

Compound	Ki (human α1b-adrenoceptor)	α1b/5-HT1A (human α1b-adrenoceptor)	ED75 (equieffective dose inhibiting the forepaw treading by 75%) ([1]; 1 h i.v.)	ED75 (equieffective dose inhibiting the forepaw treading by 75%) ([1]; 1 h p.o.)	ED75 (equieffective dose inhibiting the forepaw treading by 75%) ([1]; 4 h i.v.)	ED75 (equieffective dose inhibiting the forepaw treading by 75%) ([1]; 4 h p.o.)	potency in inhibiting forepaw treading, comparison [1, 2]	inhibition at 0.01 mg/kg ([1]; iv, 1 h before 8-OH-DPAT)	inhibition at 0.01 mg/kg ([1]; iv, 4 h before 8-OH-DPAT)	inhibition at 0.03 mg/kg ([1]; iv, 1 h before 8-OH-DPAT)	inhibition at 0.03 mg/kg ([1]; iv, 4 h before 8-OH-DPAT)	inhibition at 0.1 mg/kg ([1]; iv, 1 h before 8-OH-DPAT)	inhibition at 0.1 mg/kg ([1]; iv, 4 h before 8-OH-DPAT)	inhibition at 0.3 mg/kg [1, 3]	inhibition at 0.3 mg/kg [1, 4]	inhibition at 0.3 mg/kg [1, 5]	inhibition at 1 mg/kg ([1]; po, 1 h before 8-OH-DPAT)	inhibition at 1 mg/kg ([1]; po, 4 h before 8-OH-DPAT)	inhibition at 3 mg/kg ([1]; po, 1 h before 8-OH-DPAT)	inhibition at 3 mg/kg ([1]; po, 4 h before 8-OH-DPAT)	further results
COc1ccccc1N1CCN(CC[C@H](c2ccccc2F)[C@@H](O)C2CCCCC2)CC1 [Ex. 1Y, 1-[(3R,4S)-4-cyclohexyl-4-hydroxy-3-(2-fluorophenyl)-butyl]-4-(2-methoxyphenyl)-piperazine]	11 nM	30	1 h i.v.: ED75 = 0.038 mg/kg/	1 h p.o.: ED75 = 1.7 mg/kg/	4 h i.v.: ED75 = 0.182 mg/kg	4 h p.o.: ED75 = 2.6 mg/kg	practically equipotent	37%	11%	72%	35%	100%	65%	100%	84%	18%	58%	38%	92%	85%	potency in inhibiting forepaw treading, comparison ([1]; after oral administration, in particular at four hours): more potent than Ex. 5; inhibition at 0.3 mg/kg [1, 6]: 18%
COc1ccccc1N1CCN(CC[C@@H](c2ccccc2F)[C@H](O)C2CCCCC2)CC1 (racemic) [Ex. 1, 1-[(SR-RS)-4-cyclohexyl-4-hydroxy-3-(2-fluorophenyl)-butyl]-4-(2-methoxyphenyl)-piperazine]	5.9 nM	45		1 h p.o.: ED75 = 3.3 mg/kg/		4 h p.o.: ED75 = 4.0 mg/kg											35%	37%	84%	72%	inhibition at 10 mg/kg ([1]; po, 1 h before 8-OH-DPAT): 100%; inhibition at 10 mg/kg ([1]; po, 4 h before 8-OH-DPAT): 96%
COc1ccccc1N1CCN(CC[C@H](c2ccccc2)[C@@H](O)C2CCCCC2)CC1 (racemic) [Ex. 5, 1-[(RS,SR)-4-Cyclohexyl-4-hydroxy-3-phenyl-butyl]-4-(2-methoxyphenyl)-piperazine, reference compound]	12 nM	18	1 h i.v.: ED75 = 0.032 mg/kg/	1 h p.o.: ED75 = 2.1 mg/kg/	4 h i.v.: ED75 = 0.138 mg/kg		practically equipotent	41%	26%	82%	54%	100%	72%	100%	85%	8%	42%	46%	90%	67%	ED75 (equieffective dose inhibiting the forepaw treading by 75%) [1]: 4 h p.o.: ED75 = 4.6 mg/kg; inhibition at 0.3 mg/kg [1, 6]: 20%
COc1ccccc1N1CCN(CC[C@H](c2ccccc2F)[C@H](O)C2CCCCC2)CC1 [Ex. 2X, 1-[(3R,4R)-4-cyclohexyl-4-hydroxy-3-(2-fluorophenyl)-butyl]-4-(2-methoxyphenyl)-piperazine]	11 nM	46	1 h i.v.: ED75 = 0.041 mg/kg/		4 h i.v.: ED75 = 0.152 mg/kg		practically equipotent	39%	6%	65%	49%	100%	63%	100%	89%						
